The record followed here is patent publication US7307095B2, “Inhibitors of cathepsin S” (IRM LLC, priority 2003, dated 2007).

What all share (assay type): biochemical
One assay deals with Cathepsin S (Homo sapiens, UniProt P25774). Nature of the assay: Cathepsin S inhibition, fluorogenic peptide substrate kinetic assay. The conditions noted are these: Cathepsin S inhibition constant; read-out: Ki Cat. S. As for the experimental part: (§1) The optimal substrate for cathepsin S, acetyl-histidine-proline-valine-lysine-amino carbamoyl coumarin, was identified from screening a combinatorial library of fluorogenic peptide substrates (Harris, J. L., B. J. Backes, et al. Proc Natl Acad Sci USA 2000, 97(14), 7754-9). Kinetic measurements are performed in a total reaction volume of 30 μl in 384-well microtiter plates. […] Control reactions in the absence of inhibitor are performed in replicates of 24. The reactions are initiated by adding the substrate, acetyl-histidine-proline-valine-lysine-amino carbamoyl coumarin, to a final concentration of 50 μM. The rate of substrate hydrolysis is measured by monitoring the increase in fluorescence at an excitation wavelength of 380 nm and an emission wavelength of 450 nm that results from cleavage of the aniline bond in the substrate by the enzyme. The apparent inhibition constants for the compounds are determined from the enzyme progress curves (Kuzmic, P., K. C. Elrod, et al. Anal Biochem 2000, 286(1), 45-50) and are then used to calculate the inhibition constants for competitive inhibitors.

The next assay deals with Cathepsin B (Homo sapiens, UniProt P07858). As to the kind of experiment: Cathepsin B inhibition, fluorogenic peptide substrate kinetic assay (selectivity ratio vs cathepsin S). As to conditions: ratio of cathepsin B inhibition constant to cathepsin S inhibition constant. As for the experimental part:
(§2) Kinetic measurements are performed in a total reaction volume of 30 μl in 384-well microtiter plates. […] Control reactions in the absence of inhibitor are performed in replicates of 24. The reactions are initiated by adding the substrate, acetyl-histidine-proline-valine-lysine-amino carbamoyl coumarin, to a final concentration of 10 μM. The rate of substrate hydrolysis is measured by monitoring the increase in fluorescence at an excitation wavelength of 380 nm and an emission wavelength of 450 nm that results from cleavage of the aniline bond in the substrate by the enzyme. The apparent inhibition constants for the compounds are determined from the enzyme progress curves ([…]. Elrod, et al. Anal Biochem 2000, 286(1), 45-50) and are then used to calculate the inhibition constants for competitive inhibitors. Selectivity for cathepsin S in the presence of cathepsin isozymes was determined by the ratio of the cathepsin isozyme inhibition constant of a compound of the present invention to the cathepsin S inhibition constant of the same compound.

The target of a further assay is Cathepsin L (Homo sapiens, UniProt P07711). As to the kind of experiment: Cathepsin L inhibition, fluorogenic peptide substrate kinetic assay (selectivity ratio vs cathepsin S). As to conditions: ratio of cathepsin L inhibition constant to cathepsin S inhibition constant. As for the experimental part:
as §1, with “cathepsin L, acetyl-histidine-lysine-phenylalanine-lysine-amino” for “cathepsin S, acetyl-histidine-proline-valine-lysine-amino”, “substrate, acetyl-histidine-lysine-phenylalanine-lysine-amino” for “substrate, acetyl-histidine-proline-valine-lysine-amino”, “of 20” for “of 50”, “curves ([…].” for “curves (Kuzmic, P., K. C.”, “inhibitors. Selectivity for cathepsin S in the presence of cathepsin isozymes was determined by the ratio of the cathepsin isozyme inhibition constant of a compound of the present invention to the cathepsin S inhibition constant of the same compound.” for “inhibitors.”

For the next assay, the target named is T1, Cathepsin K (Homo sapiens, UniProt P43235).
T1 sequence (P43235 115-329): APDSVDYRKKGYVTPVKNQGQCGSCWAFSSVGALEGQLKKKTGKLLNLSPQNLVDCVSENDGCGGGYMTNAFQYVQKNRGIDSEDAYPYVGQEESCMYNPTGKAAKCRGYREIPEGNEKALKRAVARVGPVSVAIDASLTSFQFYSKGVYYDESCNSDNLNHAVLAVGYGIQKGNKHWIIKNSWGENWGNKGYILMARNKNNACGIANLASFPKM
Nature of the assay: Cathepsin K inhibition, fluorogenic peptide substrate kinetic assay (selectivity ratio vs cathepsin S). As to conditions: ratio of cathepsin K inhibition constant to cathepsin S inhibition constant. As for the experimental part: as §2, with “acetyl-lysine-histidine-proline-lysine-amino” for “acetyl-histidine-proline-valine-lysine-amino”, “40” for “10”

Chain of Cathepsin L (P07711 114-333, species assumed): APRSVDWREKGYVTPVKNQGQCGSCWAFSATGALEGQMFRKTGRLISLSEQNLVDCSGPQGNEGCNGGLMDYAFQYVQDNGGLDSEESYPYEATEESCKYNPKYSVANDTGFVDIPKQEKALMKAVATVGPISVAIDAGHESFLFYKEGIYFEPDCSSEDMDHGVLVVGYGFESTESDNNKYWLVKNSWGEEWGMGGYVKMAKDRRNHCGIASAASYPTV
Chain of Cathepsin S (P25774 115-331, species assumed): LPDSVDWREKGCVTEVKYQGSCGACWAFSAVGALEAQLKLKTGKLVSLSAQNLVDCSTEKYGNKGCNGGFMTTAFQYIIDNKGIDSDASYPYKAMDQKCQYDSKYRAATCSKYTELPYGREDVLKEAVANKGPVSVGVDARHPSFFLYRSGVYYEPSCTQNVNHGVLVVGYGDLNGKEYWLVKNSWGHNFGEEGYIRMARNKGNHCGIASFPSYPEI

In general, Ki refers to the equilibrium dissociation constant of an inhibitor or competing ligand from its target. On to “3-(S)-[2-(S)-(6-Chloro-benzooxazol-2-ylamino)-3-cyclohexyl-propionylamino]-4-(5-fluoro-2,3-dihydro-indol-1-yl)-butyric acid tert-butyl ester [Example 28]”, for which the Ki on Cathepsin S was under 1000 nM. The “Selectivity for Cat. S over Cat. B” value at Cathepsin B is recorded as “++ (++, >100)”. In addition, the “Selectivity for Cat. S over Cat. L” value on Cathepsin L was “++ (++, >100)”. In addition, the “Selectivity for Cat. S over Cat. K” value on Cathepsin K is recorded as “++ (++, >100)”.

In the case of `CC(C)(C)C[C@H](Nc1nc2ccccc2o1)C(=O)N[C@@H](CC(=O)OC(C)(C)C)CN1CCc2cc(F)ccc21` [Example 3, 3-(S)-[2-(S)-(Benzooxazol-2-ylamino)-4,4-dimethyl-pentanoylamino]-4-(5-fluoro-2,3-dihydro-indol-1-yl)-butyric acid tert-butyl ester], the Ki on Cathepsin S is under 1000 nM. For the same compound, at Cathepsin B, the “Selectivity for Cat. S over Cat. B” value was “++ (++, >100)”. The “Selectivity for Cat. S over Cat. L” value on Cathepsin L is recorded as “++ (++, >100)”. For the same compound, the “Selectivity for Cat. S over Cat. K” value on Cathepsin K is “++ (++, >100)”.

As to `CC(C)(C)C[C@H](Nc1nc2ccccc2o1)C(=O)N[C@@H](CC(=O)O)CN1CCc2cc(F)ccc21` [Example 4, 3-(S)-[2-(S)-(Benzooxazol-2-ylamino)-4,4-dimethyl-pentanoylamino]-4-(5-fluoro-2,3-dihydro-indol-1-yl)-butyric acid], the inhibition constant (Ki) at Cathepsin S is under 100 nM. Further, the “Selectivity for Cat. S over Cat. B” value at Cathepsin B was “+++ (+++, >1000)”. Moreover, the “Selectivity for Cat. S over Cat. L” value on Cathepsin L is listed as “+++ (+++, >1000)”. The “Selectivity for Cat. S over Cat. K” value on Cathepsin K is “++ (++, >100)”.

`CC(C)(C)C[C@H](Nc1nc2ccccc2o1)C(=O)N[C@@H](CCS(C)(=O)=O)CN1CCc2cc(F)ccc21` [Example 5, 2-(S)-(Benzooxazol-2-ylamino)-4,4-dimethyl-pentanoic acid [1-(S)-(5-fluoro-2,3-dihydro-indol-1-ylmethyl)-3-methanesulfonyl-propyl]-amide]: at Cathepsin S, the Ki is under 100 nM. The “Selectivity for Cat. S over Cat. B” value on Cathepsin B is reported as “+++ (+++, >1000)”. Besides, on Cathepsin L, the “Selectivity for Cat. S over Cat. L” value is “+++ (+++, >1000)”. The “Selectivity for Cat. S over Cat. K” value on Cathepsin K was “+ (+, >10)”.

In the case of `CC(C)(C)C[C@H](Nc1nc2ccccc2o1)C(=O)N[C@@H](COCc1ccccc1)CN1CCc2cc(F)ccc21` [Example 6, 2-(S)-(Benzooxazol-2-ylamino)-4,4-dimethyl-pentanoic acid (R)-[1-benzyloxymethyl-2-(5-fluoro-2,3-dihydro-indol-1-yl)-ethyl]-amide], the Ki on Cathepsin S was under 100 nM. In addition, at Cathepsin B, the “Selectivity for Cat. S over Cat. B” value is “+++ (+++, >1000)”. For the same compound, the “Selectivity for Cat. S over Cat. L” value on Cathepsin L is “+++ (+++, >1000)”. Moreover, the “Selectivity for Cat. S over Cat. K” value on Cathepsin K is “+ (+, >10)”.

For the compound `CC(C)(C)C[C@H](Nc1nc2ccccc2o1)C(=O)N[C@@H](CO)CN1CCc2cc(F)ccc21` [Example 7, 2-(S)-(Benzooxazol-2-ylamino)-4,4-dimethyl-pentanoic acid [2-(5-fluoro-2,3-dihydro-indol-1-yl)-1-(R)-hydroxymethyl-ethyl]-amide], the Ki at Cathepsin S is under 100 nM. In addition, on Cathepsin B, the “Selectivity for Cat. S over Cat. B” value is on record as “+++ (+++, >1000)”. Moreover, the “Selectivity for Cat. S over Cat. L” value at Cathepsin L was “+++ (+++, >1000)”. Also, the “Selectivity for Cat. S over Cat. K” value at Cathepsin K is given as “+ (+, >10)”.

With `CC(C)(C)C[C@H](Nc1nccc2ccccc12)C(=O)NCCN1CCc2cc(F)ccc21` [Example 19, 2-(S)-(Isoquinolin-1-ylamino)-4,4-dimethyl-pentanoic acid [2-(5-fluoro-2,3-dihydro-indol-1-yl)-ethyl]-amide], the Ki at Cathepsin S was under 100 nM. In addition, at Cathepsin B, the “Selectivity for Cat. S over Cat. B” value is recorded as “+++ (+++, >1000)”. Further, the “Selectivity for Cat. S over Cat. L” value on Cathepsin L is given as “+ (+, >10)”.

In the case of `Cc1sc(N[C@@H](CC2CCCCC2)C(=O)NCCN2CCc3cc(F)ccc32)nc1-c1ccccc1` [Example 20, (S)-3-Cyclohexyl-N-[2-(5-fluoro-2,3-dihydro-indol-1-yl)-ethyl]-2-(5-methyl-4-phenyl-thiazol-2-ylamino)-propionamide], the Ki at Cathepsin S is under 10000 nM. For the same compound, on Cathepsin B, the “Selectivity for Cat. S over Cat. B” value is given as “+ (+, >10)”. Besides, the “Selectivity for Cat. S over Cat. K” value at Cathepsin K is given as “+ (+, >10)”.

With `COC(=O)c1ccc2nc(N[C@@H](CC3CCCCC3)C(=O)N[C@@H](C)CNc3ccc(F)cc3)oc2c1` [Example 24, (S,S)2-{2-Cyclohexyl-1-[2-(4-fluoro-phenylamino)-1-methyl-ethylcarbamoyl]-ethylamino}-benzooxazole-6-carboxylic acid methyl ester], the Ki on Cathepsin S was under 100 nM.

Regarding `Cc1cc(NC[C@H](C)NC(=O)[C@H](CC2CCCCC2)Nc2nc3cccc(Cl)c3o2)no1` [Example 25, 2-(S)-(7-Chloro-benzooxazol-2-ylamino)-3-cyclohexyl-N-[1-(S)-methyl-2-(5-methyl-isoxazol-3-ylamino)-ethyl]-propionamide], the inhibitory constant (Ki) at Cathepsin S is under 10000 nM.

Take `O=C(O)C[C@@H](CN1CCc2cc(F)ccc21)NC(=O)[C@H](CC1CCCCC1)Nc1nc2ccc(Cl)cc2s1` [Example 29, 3-(S)-[2-(S)-(6-Chloro-benzothiazol-2-ylamino)-3-cyclohexyl-propionylamino]-4-(5-fluoro-2,3-dihydro-indol-1-yl)-butyric acid]: the Ki on Cathepsin S is under 100 nM.

As for `C[C@@H](CN1CCc2cc(F)ccc21)NC(=O)[C@H](CC1CCCCC1)Nc1nc2ccc(Cl)cc2s1` [Example 34, 2-(S)-(6-Chloro-benzothiazol-2-ylamino)-3-cyclohexyl-N-[2-(5-fluoro-2,3-dihydro-indol-1-yl)-1-(S)-methyl-ethyl]-propionamide], the Ki at Cathepsin S is under 100 nM.

`C[C@@H](CNc1ccc(OC(F)(F)F)cc1)NC(=O)[C@H](CC1CCCC1)Nc1nc2cccc(Cl)c2o1` [Example 39, 2-(S)-(7-Chloro-benzooxazol-2-ylamino)-3-cyclopentyl-N-[1-(S)-methyl-2-(4-trifluoromethoxy-phenylamino)-ethyl]-propionamide]: the inhibition constant (Ki) at Cathepsin S is under 100 nM.

For the compound `C[C@@H](CNc1ccc(OC(F)(F)F)cc1)NC(=O)[C@H](CC(C)(C)C)Nc1nc2cccc(Cl)c2o1` [Example 41, 2-(S)-(7-Chloro-benzooxazol-2-ylamino)-4,4-dimethyl-pentanoic acid [1-(S)-methyl-2-(4-trifluoromethoxy-phenylamino)-ethyl]-amide], the inhibition constant Ki at Cathepsin S was under 100 nM.

`C[C@@H](CNc1ccc(OC(F)(F)F)cc1)NC(=O)[C@H](CC1CC1)Nc1nc2cccc(Cl)c2o1` [Example 43, 2-(S)-(7-Chloro-benzooxazol-2-ylamino)-3-cyclopropyl-N-[1-(S)-methyl-2-(4-trifluoromethoxy-phenylamino)-ethyl]-propionamide]: on Cathepsin S, the Ki was under 100 nM.
